In the supplement of paper PMC10307832:

Key:
Assay in all cases: relative viability (nuclei count vs DMSO), 5 days (fraction); higher = more cells survive
[1] = compound: CC1=C(C(=O)N2C=CSC2=N1)CCN3CCC(=C(C4=CC=CC=C4)C5=CC=C(C=C5)F)CC3
Procedure, shortened: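 Only plates meeting two conditions passed: control CV below 25% and at least one doubling. Lung cancer cell lines, kept overnight at 37 °C in 1536-well plates, were pinned with five library-drug doses (not always all listed) √10 apart on vehicle-anchored plates and grown 5 days without medium change. A one-step fix, permeabilisation and Hoechst stain preceded 4× imaging and MetaXpress nuclear counting. Viability equals treated-well nuclei divided by vehicle-well nuclei, as the median over plates.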

[2] = compound: CC1=C(C(=O)N2C=CSC2=N1)CCN3CCC(=C(C4=CC=CC=C4)C5=CC=C(C=C5)F)CC3 + COc1cc2c(Oc3ccc(NC(=O)C4(C(=O)Nc5ccc(F)cc5)CC4)cc3F)ccnc2cc1OCCCN1CCOCC1 [Foretinib] (partner 0.25 µM)
Procedure, shortened: (§1)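 Lung cancer cell lines in 1536-well plates were dosed by pin tool the day after seeding, either with one drug alone or with a fixed anchor-drug dose plus five library-drug doses (not always all listed) in √10 steps. After 5 days, cells were fixed and their nuclei stained in one step (final 0.05% Triton X-100, 1% formaldehyde, 1 ug/ml Hoechst), then counted on 4× images. Relative viability is the nuclei count in treated wells divided by that in vehicle wells. Values are medians of duplicate plates.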

[3] = compound: CC1=C(C(=O)N2C=CSC2=N1)CCN3CCC(=C(C4=CC=CC=C4)C5=CC=C(C=C5)F)CC3 + CS(=O)(=O)N1CCN(Cc2cc3nc(-c4cccc5[nH]ncc45)nc(N4CCOCC4)c3s2)CC1 [Pictilisib] (partner 1 µM)
Procedure, shortened: as §1

[4] = compound: CC1=C(C(=O)N2C=CSC2=N1)CCN3CCC(=C(C4=CC=CC=C4)C5=CC=C(C=C5)F)CC3 + O=C(CCCCCCC(=O)Nc1ccccc1)NO [Vorinostat] (partner 1 µM)
Procedure, shortened: as §1

[5] = compound: CC1=C(C(=O)N2C=CSC2=N1)CCN3CCC(=C(C4=CC=CC=C4)C5=CC=C(C=C5)F)CC3 + CS(=O)(=O)CCNCc1ccc(-c2ccc3ncnc(Nc4ccc(OCc5cccc(F)c5)c(Cl)c4)c3c2)o1 [Lapatinib] (partner 2 µM)
Procedure, shortened: as §1

[6] = compound: CC1=C(C(=O)N2C=CSC2=N1)CCN3CCC(=C(C4=CC=CC=C4)C5=CC=C(C=C5)F)CC3 + C[C@]1(O)C[C@@H](c2nc(-c3ccc4ccc(-c5ccccc5)nc4c3)c3c(N)nccn32)C1 [Linsitinib] (partner 1 µM)
Procedure, shortened: as §1

[7] = compound: CC1=C(C(=O)N2C=CSC2=N1)CCN3CCC(=C(C4=CC=CC=C4)C5=CC=C(C=C5)F)CC3 + C[C@@H](Oc1cc(-c2cnn(C3CCNCC3)c2)cnc1N)c1c(Cl)ccc(F)c1Cl [Crizotinib] (partner 1 µM)
Procedure, shortened: as §1

[8] = compound: CC1=C(C(=O)N2C=CSC2=N1)CCN3CCC(=C(C4=CC=CC=C4)C5=CC=C(C=C5)F)CC3 + CC(C)C[C@H](NC(=O)[C@H](Cc1ccccc1)NC(=O)c1cnccn1)B(O)O [Bortezomib] (partner 0.002 µM)
Procedure, shortened: as §1

[9] = compound: CC1=C(C(=O)N2C=CSC2=N1)CCN3CCC(=C(C4=CC=CC=C4)C5=CC=C(C=C5)F)CC3 + Cc1nc(NC(=O)N2CCC[C@H]2C(N)=O)sc1-c1ccnc(C(C)(C)C(F)(F)F)c1 [Alpelisib] (partner 2 µM)
Procedure, shortened: as §1

[10] = compound: CC1=C(C(=O)N2C=CSC2=N1)CCN3CCC(=C(C4=CC=CC=C4)C5=CC=C(C=C5)F)CC3 + CC1(C)CCC(c2ccc(Cl)cc2)=C(CN2CCN(c3ccc(C(=O)NS(=O)(=O)c4ccc(N[C@H](CCN5CCOCC5)CSc5ccccc5)c(S(=O)(=O)C(F)(F)F)c4)cc3)CC2)C1 [Navitoclax] (partner 0.5 µM)
Procedure, shortened: as §1

[11] = compound: CC1=C(C(=O)N2C=CSC2=N1)CCN3CCC(=C(C4=CC=CC=C4)C5=CC=C(C=C5)F)CC3 + O=C(c1cc(Cc2n[nH]c(=O)c3ccccc23)ccc1F)N1CCN(C(=O)C2CC2)CC1 [Olaparib] (partner 8 µM)
Procedure, shortened: as §1

## IA-LM
[1]; 0.08 µM
  relative viability: 0.761
[1]; 0.253 µM
  relative viability: 0.928
[1]; 0.8 µM
  relative viability: 1.1
[1]; 2.53 µM
  relative viability: 0.944
[1]; 8 µM
  relative viability: 0.497
[2]; first compound 0.08 µM
  relative viability: 1.1
[2]; first compound 0.253 µM
  relative viability: 1.06
[2]; first compound 0.8 µM
  relative viability: 1.24
[2]; first compound 2.53 µM
  relative viability: 1.22
[2]; first compound 8 µM
  relative viability: 0.691
[3]; first compound 0.253 µM
  relative viability: 0.354
[3]; first compound 0.8 µM
  relative viability: 0.211
[3]; first compound 2.53 µM
  relative viability: 0.345
[3]; first compound 8 µM
  relative viability: 0.234
[4]; first compound 0.08 µM
  relative viability: 0.524
[4]; first compound 0.253 µM
  relative viability: 0.895
[4]; first compound 0.8 µM
  relative viability: 1.01
[4]; first compound 2.53 µM
  relative viability: 0.756
[4]; first compound 8 µM
  relative viability: 0.417
[5]; first compound 0.253 µM
  relative viability: 0.585
[5]; first compound 0.8 µM
  relative viability: 0.789
[5]; first compound 2.53 µM
  relative viability: 0.853
[5]; first compound 8 µM
  relative viability: 0.405
[6]; first compound 0.08 µM
  relative viability: 0.538
[6]; first compound 0.253 µM
  relative viability: 0.518
[6]; first compound 0.8 µM
  relative viability: 0.822
[6]; first compound 2.53 µM
  relative viability: 0.427
[6]; first compound 8 µM
  relative viability: 0.411
[7]; first compound 0.253 µM
  relative viability: 0.713
[7]; first compound 0.8 µM
  relative viability: 1.09
[7]; first compound 2.53 µM
  relative viability: 0.944
[7]; first compound 8 µM
  relative viability: 0.502
[8]; first compound 0.08 µM
  relative viability: 0.621
[8]; first compound 0.253 µM
  relative viability: 0.757
[8]; first compound 0.8 µM
  relative viability: 0.711
[8]; first compound 2.53 µM
  relative viability: 0.843
[8]; first compound 8 µM
  relative viability: 0.63
[9]; first compound 0.08 µM
  relative viability: 0.554
[9]; first compound 0.253 µM
  relative viability: 0.576
[9]; first compound 0.8 µM
  relative viability: 0.845
[9]; first compound 2.53 µM
  relative viability: 0.988
[9]; first compound 8 µM
  relative viability: 0.465
[10]; first compound 0.08 µM
  relative viability: 0.841
[10]; first compound 0.253 µM
  relative viability: 0.7
[10]; first compound 0.8 µM
  relative viability: 0.823
[10]; first compound 2.53 µM
  relative viability: 0.884
[10]; first compound 8 µM
  relative viability: 0.523
[11]; first compound 0.08 µM
  relative viability: 0.93
[11]; first compound 0.253 µM
  relative viability: 0.926
[11]; first compound 0.8 µM
  relative viability: 0.848
[11]; first compound 2.53 µM
  relative viability: 0.709
[11]; first compound 8 µM
  relative viability: 0.687
